Columns and labels:
Polygonum convolvulus [1] = experiment: Pre-emergence herbicidal effect; format: in vivo; conditions: scored visually after 3 weeks
Outline: (§1)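 Pre-emergence soil-surface application of compound as WP or EC in water (600 to 800 L/ha, 0.2% wetting agent) to freshly sown, soil-covered seeds in sandy loam. After 3 weeks under greenhouse conditions, percent activity rated by eye versus untreated plants, from 0% (no effect) to 100% (death).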

Amaranthus retroflexus [2] = experiment: Pre-emergence herbicidal effect; format: in vivo; conditions: scored visually after 3 weeks
Outline: as §1

Matricaria inodora [3] = experiment: Pre-emergence herbicidal effect; format: in vivo; conditions: scored visually after 3 weeks
Outline: as §1

Viola tricolor [4] = experiment: Pre-emergence herbicidal effect; format: in vivo; conditions: scored visually after 3 weeks
Outline: as §1

Stellaria media [5] = experiment: Pre-emergence herbicidal effect; format: in vivo; conditions: scored visually after 3 weeks
Outline: as §1

Veronica persica [6] = experiment: Pre-emergence herbicidal effect; format: in vivo; conditions: scored visually after 3 weeks
Outline: as §1

Echinochloa crus-galli [7] = experiment: Pre-emergence herbicidal effect; format: in vivo; conditions: scored visually after 3 weeks
Outline: as §1

Setaria viridis [8] = experiment: Pre-emergence herbicidal effect; format: in vivo; conditions: scored visually after 3 weeks
Outline: as §1

Abutilon theophrasti [9] = experiment: Pre-emergence herbicidal effect; format: in vivo; conditions: scored visually after 3 weeks
Outline: as §1

Lolium multiflorum [10] = experiment: Post-emergence herbicidal effect; format: in vivo; conditions: assessed visually after about 3 weeks vs untreated controls
Outline: (§2)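 Herbicidal effect was rated visually roughly 3 weeks after foliar treatment, as % versus untreated plants, with 0% meaning the same as controls and 100% meaning dead. Plants were treated at the one-leaf stage in the greenhouse with aqueous WP or EC sprays at 600–800 L/ha containing 0.2% wetter.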

Amaranthus retroflexus [11] = experiment: Post-emergence herbicidal effect; format: in vivo; conditions: assessed visually after about 3 weeks vs untreated controls
Outline: as §2

Matricaria inodora [12] = experiment: Post-emergence herbicidal effect; format: in vivo; conditions: 320 g/ha, assessed visually after about 3 weeks vs untreated controls
Outline: as §2

Viola tricolor [13] = experiment: Post-emergence herbicidal effect; format: in vivo; conditions: assessed visually after about 3 weeks vs untreated controls
Outline: as §2

Stellaria media [14] = experiment: Post-emergence herbicidal effect; format: in vivo; conditions: assessed visually after about 3 weeks vs untreated controls
Outline: as §2

Veronica persica [15] = experiment: Post-emergence herbicidal effect; format: in vivo; conditions: assessed visually after about 3 weeks vs untreated controls
Outline: as §2

Echinochloa crus-galli [16] = experiment: Post-emergence herbicidal effect; format: in vivo; conditions: assessed visually after about 3 weeks vs untreated controls
Outline: as §2

Abutilon theophrasti [17] = experiment: Post-emergence herbicidal effect; format: in vivo; conditions: assessed visually after about 3 weeks vs untreated controls
Outline: as §2

Alopecurus myosuroides [18] = experiment: Post-emergence herbicidal effect; format: in vivo; conditions: assessed visually after about 3 weeks vs untreated controls
Outline: as §2

Cyperus esculentus = experiment: Pre-emergence herbicidal effect; format: in vivo; conditions: Dosage 320 g/ha, scored visually after 3 weeks
Outline: as §1

Avena fatua = experiment: Pre-emergence herbicidal effect; format: in vivo; conditions: Dosage 320 g/ha, scored visually after 3 weeks
Outline: as §1

Lolium multiflorum [19] = experiment: Pre-emergence herbicidal effect; format: in vivo; conditions: Dosage 320 g/ha, scored visually after 3 weeks
Outline: as §1

Alopecurus myosuroides [20] = experiment: Pre-emergence herbicidal effect; format: in vivo; conditions: scored visually after 3 weeks
Outline: as §1

Polygonum convolvulus [21] = experiment: Post-emergence herbicidal effect; format: in vivo; conditions: assessed visually after about 3 weeks vs untreated controls
Outline: as §2

Ipomoea purpurea = experiment: Post-emergence herbicidal effect; format: in vivo; conditions: assessed visually after about 3 weeks vs untreated controls
Outline: as §2

Setaria viridis [22] = experiment: Post-emergence herbicidal effect; format: in vivo; conditions: assessed visually after about 3 weeks vs untreated controls
Outline: as §2

logP (HCOOH) = format: physicochemical; conditions: HCOOH
Text: Table 2 (physicochemical characterization of selected synthesis examples)

Structure (SMILES): Cc1cc2c(s1)CCCC2Nc1ncc2c(n1)CCCC2=O (racemic) [compound 9]
- POLCO pre-emergence efficacy (herbicidal activity) (Polygonum convolvulus [1]; Dosage 80 g/ha): 100%
- POLCO pre-emergence efficacy (herbicidal activity) (Polygonum convolvulus [1]; Dosage 320 g/ha): 100%
- AMARE pre-emergence efficacy (herbicidal activity) (Amaranthus retroflexus [2]; Dosage 80 g/ha): 100%
- AMARE pre-emergence efficacy (herbicidal activity) (Amaranthus retroflexus [2]; Dosage 320 g/ha): 100%
- MATIN pre-emergence efficacy (herbicidal activity) (Matricaria inodora [3]; Dosage 80 g/ha): 100%
- MATIN pre-emergence efficacy (herbicidal activity) (Matricaria inodora [3]; Dosage 320 g/ha): 100%
- VIOTR pre-emergence efficacy (herbicidal activity) (Viola tricolor [4]; Dosage 80 g/ha): 90%
- VIOTR pre-emergence efficacy (herbicidal activity) (Viola tricolor [4]; Dosage 320 g/ha): 100%
- STEME pre-emergence efficacy (herbicidal activity) (Stellaria media [5]; Dosage 80 g/ha): 100%
- STEME pre-emergence efficacy (herbicidal activity) (Stellaria media [5]; Dosage 320 g/ha): 100%
- VERPE pre-emergence efficacy (herbicidal activity) (Veronica persica [6]; Dosage 80 g/ha): 100%
- VERPE pre-emergence efficacy (herbicidal activity) (Veronica persica [6]; Dosage 320 g/ha): 100%
- ECHCG pre-emergence efficacy (herbicidal activity) (Echinochloa crus-galli [7]; Dosage 80 g/ha): 100%
- ECHCG pre-emergence efficacy (herbicidal activity) (Echinochloa crus-galli [7]; Dosage 320 g/ha): 100%
- SETVI pre-emergence efficacy (herbicidal activity) (Setaria viridis [8]; Dosage 80 g/ha): 80%
- SETVI pre-emergence efficacy (herbicidal activity) (Setaria viridis [8]; Dosage 320 g/ha): 100%
- ABUTH pre-emergence efficacy (herbicidal activity) (Abutilon theophrasti [9]; Dosage 80 g/ha): 100%
- ABUTH pre-emergence efficacy (herbicidal activity) (Abutilon theophrasti [9]; Dosage 320 g/ha): 100%
- post-emergence efficacy LOLMU (Lolium multiflorum [10]; 320 g/ha): 80%
- post-emergence efficacy AMARE (Amaranthus retroflexus [11]; 80 g/ha): 80%
- post-emergence efficacy AMARE (Amaranthus retroflexus [11]; 320 g/ha): 90%
- post-emergence efficacy MATIN (Matricaria inodora [12]): 80%
- post-emergence efficacy VIOTR (Viola tricolor [13]; 80 g/ha): 80%
- post-emergence efficacy VIOTR (Viola tricolor [13]; 320 g/ha): 90%
- post-emergence efficacy STEME (Stellaria media [14]; 320 g/ha): 90%
- post-emergence efficacy VERPE (Veronica persica [15]; 80 g/ha): 80%
- post-emergence efficacy VERPE (Veronica persica [15]; 320 g/ha): 90%
- post-emergence efficacy ECHCG (Echinochloa crus-galli [16]; 80 g/ha): 80%
- post-emergence efficacy ECHCG (Echinochloa crus-galli [16]; 320 g/ha): 100%
- post-emergence efficacy ABUTH (Abutilon theophrasti [17]; 320 g/ha): 80%
- post-emergence efficacy ALOMY (Alopecurus myosuroides [18]; 320 g/ha): 80%

Structure (SMILES): CS(=O)(=O)c1cnc(NC2CCCc3occc32)nc1N (racemic) [compound 13]
- AMARE pre-emergence efficacy (herbicidal activity) (Amaranthus retroflexus [2]; Dosage 320 g/ha): 100%
- MATIN pre-emergence efficacy (herbicidal activity) (Matricaria inodora [3]; Dosage 320 g/ha): 100%
- VIOTR pre-emergence efficacy (herbicidal activity) (Viola tricolor [4]; Dosage 320 g/ha): 100%
- CYPES pre-emergence efficacy (herbicidal activity) (Cyperus esculentus): 100%
- VERPE pre-emergence efficacy (herbicidal activity) (Veronica persica [6]; Dosage 320 g/ha): 90%
- post-emergence efficacy VIOTR (Viola tricolor [13]; 320 g/ha): 100%
- post-emergence efficacy STEME (Stellaria media [14]; 320 g/ha): 80%
- post-emergence efficacy VERPE (Veronica persica [15]; 320 g/ha): 90%

Structure (SMILES): Cc1cc2c(s1)C(Nc1ncc(C(F)(F)F)c(N)n1)CCC2 (racemic) [compound 55]
- POLCO pre-emergence efficacy (herbicidal activity) (Polygonum convolvulus [1]; Dosage 320 g/ha): 90%
- AVEFA pre-emergence efficacy (herbicidal activity) (Avena fatua): 100%
- LOLMU pre-emergence efficacy (herbicidal activity) (Lolium multiflorum [19]): 100%
- AMARE pre-emergence efficacy (herbicidal activity) (Amaranthus retroflexus [2]; Dosage 80 g/ha): 100%
- AMARE pre-emergence efficacy (herbicidal activity) (Amaranthus retroflexus [2]; Dosage 320 g/ha): 100%
- MATIN pre-emergence efficacy (herbicidal activity) (Matricaria inodora [3]; Dosage 80 g/ha): 100%
- MATIN pre-emergence efficacy (herbicidal activity) (Matricaria inodora [3]; Dosage 320 g/ha): 100%
- VIOTR pre-emergence efficacy (herbicidal activity) (Viola tricolor [4]; Dosage 80 g/ha): 100%
- VIOTR pre-emergence efficacy (herbicidal activity) (Viola tricolor [4]; Dosage 320 g/ha): 100%
- STEME pre-emergence efficacy (herbicidal activity) (Stellaria media [5]; Dosage 80 g/ha): 100%
- STEME pre-emergence efficacy (herbicidal activity) (Stellaria media [5]; Dosage 320 g/ha): 100%
- VERPE pre-emergence efficacy (herbicidal activity) (Veronica persica [6]; Dosage 80 g/ha): 100%
- VERPE pre-emergence efficacy (herbicidal activity) (Veronica persica [6]; Dosage 320 g/ha): 100%
- ECHCG pre-emergence efficacy (herbicidal activity) (Echinochloa crus-galli [7]; Dosage 80 g/ha): 100%
- ECHCG pre-emergence efficacy (herbicidal activity) (Echinochloa crus-galli [7]; Dosage 320 g/ha): 100%
- SETVI pre-emergence efficacy (herbicidal activity) (Setaria viridis [8]; Dosage 80 g/ha): 100%
- SETVI pre-emergence efficacy (herbicidal activity) (Setaria viridis [8]; Dosage 320 g/ha): 100%
- ABUTH pre-emergence efficacy (herbicidal activity) (Abutilon theophrasti [9]; Dosage 80 g/ha): 100%
- ABUTH pre-emergence efficacy (herbicidal activity) (Abutilon theophrasti [9]; Dosage 320 g/ha): 100%
- ALOMY pre-emergence efficacy (herbicidal activity) (Alopecurus myosuroides [20]; Dosage 80 g/ha): 90%
- ALOMY pre-emergence efficacy (herbicidal activity) (Alopecurus myosuroides [20]; Dosage 320 g/ha): 100%
- post-emergence efficacy POLCO (Polygonum convolvulus [21]; 80 g/ha): 90%
- post-emergence efficacy POLCO (Polygonum convolvulus [21]; 320 g/ha): 90%
- post-emergence efficacy LOLMU (Lolium multiflorum [10]; 80 g/ha): 80%
- post-emergence efficacy LOLMU (Lolium multiflorum [10]; 320 g/ha): 90%
- post-emergence efficacy AMARE (Amaranthus retroflexus [11]; 80 g/ha): 90%
- post-emergence efficacy AMARE (Amaranthus retroflexus [11]; 320 g/ha): 100%
- post-emergence efficacy PHBPU (Ipomoea purpurea; 80 g/ha): 100%
- post-emergence efficacy PHBPU (Ipomoea purpurea; 320 g/ha): 100%
- post-emergence efficacy VIOTR (Viola tricolor [13]; 80 g/ha): 90%
- post-emergence efficacy VIOTR (Viola tricolor [13]; 320 g/ha): 100%
- post-emergence efficacy STEME (Stellaria media [14]; 80 g/ha): 100%
- post-emergence efficacy STEME (Stellaria media [14]; 320 g/ha): 100%
- post-emergence efficacy VERPE (Veronica persica [15]; 80 g/ha): 90%
- post-emergence efficacy VERPE (Veronica persica [15]; 320 g/ha): 100%
- post-emergence efficacy ECHCG (Echinochloa crus-galli [16]; 80 g/ha): 100%
- post-emergence efficacy ECHCG (Echinochloa crus-galli [16]; 320 g/ha): 100%
- post-emergence efficacy SETVI (Setaria viridis [22]; 80 g/ha): 90%
- post-emergence efficacy SETVI (Setaria viridis [22]; 320 g/ha): 90%
- post-emergence efficacy ABUTH (Abutilon theophrasti [17]; 80 g/ha): 90%
- post-emergence efficacy ABUTH (Abutilon theophrasti [17]; 320 g/ha): 90%
- post-emergence efficacy ALOMY (Alopecurus myosuroides [18]; 80 g/ha): 90%
- post-emergence efficacy ALOMY (Alopecurus myosuroides [18]; 320 g/ha): 90%
- logP (HCOOH) (logP (HCOOH)): oily; logP (HCOOH): 2.46; 1H NMR (CDCl3, 400 MHZ, δ in ppm): 1.85-2.00 (m, 3H,
